Experimental data published in publication PMC12778052 (Science Advances, 2026).

Experiments:
physchem = assay type: physicochemical; details: pH 7.4
Protocol: The logD (pH 7.4) value was determined according to a literature procedure ([32]). Briefly, a 10-μl solution of [^68Ga]AJ647 (around 10 μCi) was added to a solution of 1-octanol (200 μl) mixed with phosphate-buffered saline (PBS) (190 μl) in a 1.5-ml centrifuge tube. After the mixture was vigorously shaken and vortexed, it was centrifuged at 3000 rpm for 5 min. Aliquots (10 μl) were removed from both phases, and the radioactivity was measured on an automated gamma counter (1282 Compugamma CS, Pharmacia/LKB Nuclear Inc., Gaithersburg, MD). The logD was calculated as the average log ratio value of the radioactivity in the 1-octanol fraction and the PBS fraction from the three samples.

human Nectin-4 = biological target: T1, human Nectin-4 (Homo sapiens, UniProt Q96NY8); test: SPR affinity for recombinant human Nectin-4; assay type: binding; details: human Nectin-4
T1 construct: purchased R&D Systems 2659-N4-050
T1 sequence (Q96NY8 32-349 limits assumed): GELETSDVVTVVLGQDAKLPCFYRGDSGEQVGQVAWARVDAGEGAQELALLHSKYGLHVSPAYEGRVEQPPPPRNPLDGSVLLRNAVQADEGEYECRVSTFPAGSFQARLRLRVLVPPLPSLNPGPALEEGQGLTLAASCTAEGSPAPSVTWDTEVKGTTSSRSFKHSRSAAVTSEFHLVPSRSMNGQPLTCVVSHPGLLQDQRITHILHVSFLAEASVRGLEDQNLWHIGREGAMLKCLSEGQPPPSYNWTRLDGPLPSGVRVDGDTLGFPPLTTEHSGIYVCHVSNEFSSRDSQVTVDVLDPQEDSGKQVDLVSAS
Protocol: The affinity of AJ647 for human and mouse Nectin-4 recombinant proteins was evaluated by SPR. The experiments were conducted using a Biacore T200 instrument with a CM5 chip at 25°C. The ligands used were His-tagged human Nectin-4 (R&D Systems, catalog no. 2659-N4-050, 44 kDa, 0.2 mg/ml stock concentration) and mouse Nectin-4 proteins (R&D Systems, catalog no. 3116-N4-050, 45 kDa, 0.2 mg/ml stock concentration), which were immobilized onto the CM5 chip. AJ647 (3057.5 Da, 10 mM stock concentration) was used as the analyte, which flowed over the ligand-immobilized surface. FC2 and FC4 was used as the experimental flow cell, while FC1 and FC3 served as the reference. An anti-His antibody (1 mg/ml stock concentration) was immobilized on all flow cells using standard amine coupling chemistry. […] Human Nectin-4 was captured onto FC2 at a level of ~600 RU, with a 1:20 dilution and 10 μg/ml diluted concentration in PBS-P. Mouse Nectin-4 was captured onto FC4 at a level of 600 RU, with a 1:20 dilution and 10 μg/ml diluted concentration in PBS-P. The theoretical maximum response (Rmax ) values were calculated on the basis of the captured response values (table S1), assuming a 1:1 interaction mechanism. […] All association and dissociation kinetics were evaluated by 1:1 kinetics model fitting.

SCaBER cells = test: [^68Ga]AJ647 binding after EV preincubation, SCaBER cells; assay type: cell-based; details: EV 60 nM preincubated 30 min, P < 0.0001
Protocol: (§1) An FITC analog of EV was made using the manufacturer’s recommended protocol (Thermo Fisher Scientific, no. 46409). Briefly, 1 mg of EV was incubated with FITC-NHS ester at a 5:1 molar ratio overnight at 4°C at 0.1 M borate buffer (pH 8.0). Excess unbound FITC-NHS ester was washed off by performing buffer exchange with 1× PBS using three rounds of ultracentrifugation at 4000g for 10 min (3-kDa molecular weight cutoff filter, Amicon, no. UFC900308). The effect of nonradioactive AJ647 on EV binding to Nectin-4 was assessed by incubating HT1376 cells at varying concentrations (5.4 μM to 0.01 nM using a serial dilution) of AJ647 for 30 min at 4°C. Unbound AJ647 was washed off using 3 ml of cold PBS. Cells were incubated with EV-FITC for 30 min at 4°C. Excess EV-FITC was washed off using 3 ml of cold PBS. The mean fluorescence intensity was measured using a flow cytometer, and data are reported as the percentage of 0 nM AJ647. For the effect of EV on [^68Ga]AJ647 binding, EV was used at concentrations of 90 to 0.04 nM using serial dilutions for 30 min at 4°C. Unbound EV was washed off using cold PBS. Then, cells were incubated with 1 μCi of [^68Ga]AJ647 for an additional 30 min. Excess [^68Ga]AJ647 was washed off three times with cold PBS. Samples were read in an automated gamma counter, and data are reported as the percentage of 1-μCi standard counts.

HT1376 cells = test: [^68Ga]AJ647 binding after EV preincubation, HT1376 cells; assay type: cell-based; details: EV 60 nM preincubated 30 min, P < 0.0001
Protocol: as §1

SCaBER tumors = test: Pilot in vivo EV effect on tumor uptake of [^68Ga]AJ647, SCaBER tumors; parameters: species or system NSG mice; details: EV 20 mg/kg i.v. single dose, 24 hours before tracer, ex vivo 60 min, n = 5
Protocol: Male NSG mice were implanted subcutaneously with HT1376 and SCaBER cells (4 million each) on the right and left rostral ends, respectively. On day 25 after cell inoculation (average tumor volume, 200 ± 35 mm^3), mice were randomized and treated with a single dose of either saline or EV ADC (20 mg/kg) injected intravenously (volume not exceeding 300 μl) or with 200 μl of saline (n = 7 per group). Twenty-four hours following the EV dose, [^68Ga]AJ647 PET scans (n = 2 per group) were acquired, and ex vivo biodistribution (n = 5 per group) was performed using the protocols mentioned above.

Row | Compound | logD (physchem) | koff (human Nectin-4) [s⁻¹] | effect on [^68Ga]AJ647 binding (SCaBER cells) | effect on [^68Ga]AJ647 binding (HT1376 cells) | reduction in [^68Ga]AJ647 tumor uptake vs saline controls (SCaBER tumors) [%]
1 | CSCC[C@@H]1NC(=O)[C@@H]2CSCCC(=O)N3CN(CN(C3)C(=O)CCSC[C@H](NC(=O)CCOCCOCCOCCOCCOCCOCCOCCOCCOCCOCCOCCOCCNC(=O)CN3CCN(CC(=O)O)CCN(CC(=O)O)CC3)C(=O)N3CCC[C@H]3C(=O)N[C@@H](Cc3cccc4ccccc34)C(=O)N[C@@H](CC(=O)O)C(=O)N2)C(=O)CCSC[C@@H](C(N)=O)NC(=O)[C@H](Cc2c[nH]c3ccccc23)NC(=O)[C@@H]2C[C@@H](O)CN2C(=O)[C@@H]2CCCN2C(=O)[C@H]([C@@H](C)O)NC(=O)[C@H](CO)NC(=O)[C@H](Cc2c[nH]c3ccccc23)NC(=O)[C@@H](CC(=O)O)NC(=O)[C@H](CCCCNC(=N)N)NC1=O [[^68Ga]AJ647, metal not drawn] | -2.06 ± 0.17 | 0.0106 ± 0.00159 | – | – | –
2 | enfortumab vedotin [EV] | – | – | significantly reduced [^68Ga]AJ647 binding | significantly reduced [^68Ga]AJ647 binding | 72
